Reference: patent US9879050B2, “Substituted urea depsipeptide analogs as activators of the CLPP endopeptidase” (priority 2013, dated 2018)
In brackets after ≈: the same amount, converted by molar mass.

Key:
[1] = from C[C@H]1C[C@@H](C(=O)O[C@@H](C)[C@H](NC(=O)OCc2ccccc2)C(=O)OCC(=O)c2ccccc2)N(C(=O)[C@H](C)NC(=O)[C@@H]2CCCCN2C(=O)[C@@H]2CCCN2C(=O)OC(C)(C)C)C1, amide bond, pentafluorophenyl ester (EDC·HCl/pentafluorophenol), then aq NaHCO3, DCM, 1.24 mM, 25.0 °C, 4 steps
S. aureus USA 300 ΔClpP = test: Minimal inhibitory concentration, microbroth dilution; assay type: cell-based, Staphylococcus aureus; conditions: ClpP inactivated strain
Method in brief: (§1)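 MICs were determined by CLSI broth microdilution, using two-fold compound dilutions from a final 200 μM and about 10^5 cfu/mL inoculum. Plates were incubated aerobically at 37 °C overnight. The MIC was read visually as the lowest concentration preventing growth.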

S. pneumoniae R6 = test: as above; assay type: cell-based; conditions: Streptococcus pneumoniae, R6, read-out: Minimal Inhibitory Concentration S. pneumoniae R6
Method in brief: (§2)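 Twofold serial dilutions in broth per CLSI M7-A7 microbroth dilution, incubated aerobically overnight at 37° C. MIC read visually as lowest concentration preventing bacterial growth.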

S. pyogenes ATCC 700294 = test: as above; assay type: cell-based; conditions: Streptococcus pyogenes, ATCC700294, read-out: Minimal Inhibitory Concentration S. pyogenes ATCC 700294
Method in brief: as §2

S. aureus NRS70 = test: as above; assay type: cell-based; conditions: Staphylococcus aureus, NRS70, read-out: Minimal Inhibitory Concentration S. aureus NRS70
Method in brief: as §1

S. aureus USA 300 = test: as above; assay type: cell-based; conditions: Staphylococcus aureus, USA300, read-out: Minimal Inhibitory Concentration S. aureus USA 300
Method in brief: as §1

S. aureus ATCC 29213 = test: as above; assay type: cell-based; conditions: Staphylococcus aureus, ATCC29213, read-out: Minimal Inhibitory Concentration S. aureus ATCC 29213
Method in brief: as §1

B. subtilis ATCC 23857 = test: as above; assay type: cell-based; conditions: Bacillus subtilis, ATCC23857, read-out: Minimal Inhibitory Concentration B. subtilis ATCC 23857
Method in brief: as §1

[2] = system: Vero (kidney epithelial cells; ATCC CCL-81); test: Cytotoxicity assay, CellTiter-Glo cell viability; assay type: cell-based; conditions: Vero cells, 72 hours
Method in brief: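 Vero cells seeded overnight at 37 °C in DMEM with 10% FBS, then exposed to serial dilutions of compound for 72 h. Viability read by CellTiter-Glo luminescence; IC50 from duplicates, given as the range of two independent experiments.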

| SMILES | ring closure, yield of all isomers [1] [%] | Minimal Inhibitory Concentration S. aureus USA 300 ΔClpP (S. aureus USA 300 ΔClpP) [µM] | MIC (S. pneumoniae R6) [µM] | MIC (S. pyogenes ATCC 700294) [µM] | MIC (S. aureus NRS70) [µM] | MIC (S. aureus USA 300) [µM] | MIC (S. aureus ATCC 29213) [µM] | MIC (B. subtilis ATCC 23857) [µM] | IC50 [2] [µM] |
| --- | --- | --- | --- | --- | --- | --- | --- | --- | --- |
| C[C@H]1C[C@H]2C(=O)O[C@@H](C)[C@H](NC(=O)OCc3ccccc3)C(=O)N3CCC[C@H]3C(=O)N3CCCC[C@H]3C(=O)N[C@@H](C)C(=O)N2C1 | 74 |  |  |  |  |  |  |  |  |
| Cc1ccc(NC(=O)N[C@@H](Cc2cc(F)cc(F)c2)C(=O)N[C@@H]2C(=O)N3CCCC3C(=O)N(C)[C@@H]([C@H](C)O)C(=O)N[C@@H](C)C(=O)N3C[C@@H](C)CC3C(=O)O[C@H]2C)cc1 (stereo partly drawn) [Compound 35, (S)-3-(3,5-Difluorophenyl)-N-((2S,6S,9S,11aS,17S,18S,20aS)-9-((S)-1-Hydroxyethyl)-2,6,10,18-Tetramethyl-5,8,11,16,20-Pentaoxohexadecahydro-1H,5H,16H-Dipyrrolo[2,1-C:2′,1′-L][1]Oxa[4,7,10,13]Tetraazacyclohexadecin-17-Yl)-2-(3-(P-Tolyl)Ureido)Propanamide] |  | 200 | 0.049 (≈ 0.0398 µg/mL) | 0.39 (≈ 0.317 µg/mL) | 0.1 (≈ 0.0812 µg/mL) | 0.2 (≈ 0.162 µg/mL) | 0.2 (≈ 0.162 µg/mL) | 0.2 (≈ 0.162 µg/mL) | 55.7 ± 3.6 |
| Cc1ccc(NC(=O)N[C@@H](Cc2cc(F)cc(F)c2)C(=O)N[C@@H]2C(=O)N3CCCC3C(=O)N(C)[C@@H]([C@H](C)O)C(=O)N[C@@H](C)C(=O)N3C[C@H](C)CC3C(=O)O[C@H]2C)cc1 (stereo partly drawn) [Compound 38, (S)-3-(3,5-Difluorophenyl)-N-((2R,6S,9S,11aS,17S,18S,20aS)-9-((S)-1-Hydroxyethyl)-2,6,10,18-Tetramethyl-5,8,11,16,20-Pentaoxohexadecahydro-1H,5H,16H-Dipyrrolo[2,1-C:2′,1′-L][1]Oxa[4,7,10,13]Tetraazacyclohexadecin-17-Yl)-2-(3-(P-Tolyl)Ureido)Propanamide] |  | 200 | 0.02 (≈ 0.0162 µg/mL) | 0.1 (≈ 0.0812 µg/mL) | 0.05 (≈ 0.0406 µg/mL) | 0.1 (≈ 0.0812 µg/mL) | 0.05 (≈ 0.0406 µg/mL) | 0.05 (≈ 0.0406 µg/mL) | 46.1 ± 5.5 |
